Entries after “also recorded” stand apart in the source; their conditions may differ.
Legend:
[1] = biological target: T1, recombinant rat FAAH (rFAAH) (Rattus norvegicus, UniProt P97612); experiment: Enzyme assay: inhibition of purified recombinant rat FAAH, 14C-oleamide hydrolysis, Ki by Dixon plot; type: biochemical
T1 construct: The truncated rat FAAH (rFAAH) was expressed in E. coli and purified; made in house; host or cells: Escherichia coli
T1 sequence (P97612 30-579 limits assumed): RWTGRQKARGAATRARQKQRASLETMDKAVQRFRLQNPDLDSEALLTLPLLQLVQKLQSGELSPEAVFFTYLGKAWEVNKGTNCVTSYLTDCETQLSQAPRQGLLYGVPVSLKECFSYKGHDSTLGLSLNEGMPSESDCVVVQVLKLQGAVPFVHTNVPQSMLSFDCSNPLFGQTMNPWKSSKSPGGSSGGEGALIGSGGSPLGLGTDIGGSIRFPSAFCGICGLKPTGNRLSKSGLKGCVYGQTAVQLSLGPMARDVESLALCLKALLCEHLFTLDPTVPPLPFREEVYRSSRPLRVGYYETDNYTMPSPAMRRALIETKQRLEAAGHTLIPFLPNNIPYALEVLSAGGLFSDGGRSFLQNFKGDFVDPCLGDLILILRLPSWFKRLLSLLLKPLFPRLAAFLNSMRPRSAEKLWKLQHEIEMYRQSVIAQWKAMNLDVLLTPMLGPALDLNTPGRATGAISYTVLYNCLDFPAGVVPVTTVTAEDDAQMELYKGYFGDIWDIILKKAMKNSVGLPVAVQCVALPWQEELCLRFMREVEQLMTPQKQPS
Outline: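 Hydrolysis of 14C-oleamide at 20-23° C by purified truncated rat FAAH expressed in E. coli or by lysate of COS-7 cells transfected with full-length human FAAH, in 125 mM Tris/1 mM EDTA/0.2% glycerol/0.02% Triton X-100/0.4 mM Hepes, pH 9.0. Reaction stopped in 0.1 N HCl at three time points; substrate and product separated by TLC; Ki from Dixon plot.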

[2] = biological target: T2, human FAAH (hFAAH) (Homo sapiens, UniProt O00519); experiment: Enzyme assay: inhibition of human FAAH (lysate of hFAAH-transfected COS-7 cells), 14C-oleamide hydrolysis; type: biochemical
T2 construct: The full-length human FAAH (hFAAH) was expressed in COS-7 cells; expressed in transfected cells; host or cells: COS-7 (transiently transfected with human FAAH cDNA)
T2 sequence (O00519 1-579): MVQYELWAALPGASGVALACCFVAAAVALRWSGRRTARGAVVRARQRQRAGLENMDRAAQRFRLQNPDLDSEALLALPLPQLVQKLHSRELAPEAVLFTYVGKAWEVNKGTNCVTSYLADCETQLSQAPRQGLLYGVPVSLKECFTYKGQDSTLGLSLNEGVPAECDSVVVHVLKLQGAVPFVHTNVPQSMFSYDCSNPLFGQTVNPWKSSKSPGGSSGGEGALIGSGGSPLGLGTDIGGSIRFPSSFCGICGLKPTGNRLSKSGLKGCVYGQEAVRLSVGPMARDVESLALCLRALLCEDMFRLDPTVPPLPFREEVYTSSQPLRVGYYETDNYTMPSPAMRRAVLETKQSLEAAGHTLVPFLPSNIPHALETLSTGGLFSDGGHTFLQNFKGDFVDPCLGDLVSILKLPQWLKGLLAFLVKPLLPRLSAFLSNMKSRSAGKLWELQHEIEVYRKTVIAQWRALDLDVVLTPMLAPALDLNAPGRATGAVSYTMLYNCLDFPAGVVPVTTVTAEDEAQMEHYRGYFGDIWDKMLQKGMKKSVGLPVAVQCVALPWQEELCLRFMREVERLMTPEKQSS
Description: Enzyme assays were performed at 20-23° C. with purified recombinant rat FAAH expressed in Escherichia coli or with solubilized COS-7 membrane extracts from cells transiently transfected with human FAAH cDNA (where specifically indicated) in a buffer of 125 mM Tris/1 mM EDTA/0.2% glycerol/0.02% Triton X-100/0.4 mM Hepes, pH 9.0.
^14C-labeled oleamide was prepared from ^14C-labeled oleic acid. The truncated rat FAAH (rFAAH) was expressed in E. coli and purified. The purified recombinant rFAAH was used in the inhibition assays unless otherwise indicated. The full-length human FAAH (hFAAH) was expressed in COS-7 cells as described, and the lysate of hFAAH-transfected COS-7 cells was used in the inhibition assays where explicitly indicated.
The inhibition assays were performed as follows. […] The enzyme reaction was terminated by transferring 20 μL of the reaction mixture to 500 μL of 0.1 N HCl at three different time points. The ^14C-labeled oleamide (substrate) and oleic acid (product) were extracted with EtOAc and analyzed by TLC as detailed. The Ki of the inhibitor was calculated using a Dixon plot as described (standard deviations are provided in the Supporting Information tables).

[3] = system: endogenous levels of FAAH substrates AEA, PEA, OEA and of 2-AG, AA; experiment: In vivo pharmacodynamic studies: brain and liver lipid levels after inhibitor treatment (LC-MS); design: species or system mouse (C57BL/6J)
Description: This includes monitoring the effects of the inhibitors on the endogenous levels of the FAAH substrates anandamide (AEA, N-arachidonoyl ethanolamine), N-oleoyl ethanolamine (OEA), and N-palmitoyl ethanolamine (PEA), as well as the key lipids 2-arachidonoylglycerol (2-AG) and arachidonic acid (AA) that are not endogenous substrates for FAAH.
Inhibitors were prepared as a saline-emulphor emulsion for intraperitoneal (i.p.) administration by vortexing, sonicating, and gently heating neat compound directly into an 18:1:1 v/v/v solution of saline:ethanol:emulphor, or as a homogeneous PEG solution for oral administration (p.o.) by vortexing, sonicating, and gently heating neat compound directly into PEG300 (Fluka). Male C57BL/6J mice (<6 months old, 20-28 g) were administered inhibitors in saline-emulphor emulsion or an 18:1:1 v/v/v saline:emulphor:ethanol vehicle i.p. at a volume of 10 μL/g weight, or alternatively inhibitors in PEG300 or a PEG300 vehicle p.o. at a volume of 4 μL/g weight. After the indicated amount of time, mice were anesthetized with isofluorane and killed by decapitation. Total brains (˜400 mg) and a portion of the liver (˜100 mg) were removed and flash frozen in liquid N2.
Tissue was weighed and subsequently Dounce homogenized in 2:1:1 v/v/v CHCl3:MeOH:Tris pH 8.0 (8 mL) containing standards for lipids (50 pmol d4-PEA, 2 pmol d4-AEA, 0.5 nmol ds-2-AG, and 10 nmol pentadecanoic acid). The mixture was vortexed and then centrifuged (1,400×g, 10 min). The organic layer was removed, dried under a stream of N2, resolubilized in 2:1 v/v CHCl3:MeOH (120 μL), and 10 μL of this resolubilized lipid was injected onto an Agilent G6410B QQQ instrument. […] Mobile phase A was composed of a 95:5 v/v H2O:MeOH, and mobile phase B was composed of a 65:35:5 v/v/v i-PrOH:MeOH:H2O. 0.1% Formic acid or 0.1% ammonium hydroxide was included to assist in ion formation in positive and negative ionization mode, respectively. The flow rate for each run started at 0.1 mL/min with 0% B. At 5 min, the solvent was immediately changed to 60% B with a flow rate of 0.4 mL/min and increased linearly to 100% B over 10 min. […] MS analysis was performed with an electrospray ionization (ESI) source. […] For negative polarity, the analysis was performed in MS2 scan mode from 100-1000 m/z. The capillary was set to 4 kV, the fragmentor was set to 100 V, and the delta EMV was set to 0. Lipids were quantified by measuring the area under the peak in comparison to the standards.

[4] = system: mice with CCI neuropathic pain; experiment: Chronic constriction injury (CCI) of the sciatic nerve: mechanical (von Frey) and cold (acetone) allodynia; type: in vivo, mouse (C57BL/6); details: 50 mg/kg p.o.
Description: Surgery was performed as follows. Briefly, the right hind leg of male C57BL/6 mice was shaved and swabbed with betadine solution and ethanol. Posterior to the femur, an incision was made and the sciatic nerve was visualized and isolated, following muscle separation. The nerve was ligated twice with 5-0 (1.0 metric) black silk braided suture (Surgical Specialties Corporation, Reading, Pa.). The surrounding muscle and skin were then sutured with 6-0 nylon. Mice were recovered in a heated cage and observed for approximately 2 h before being returned to the vivarium.
Allodynia was initially tested 10 days after surgery. Male C57BL/6 mice were habituated to the test apparatus for 2 h on the 2 days prior to testing. On the test day, the mice were brought into the test room, weighed, and allowed to acclimate for at least 1 h before the start of the experiment. […] Mechanical (von Frey) and cold (acetone-induced) allodynia were tested at 1, 3, 6, and 9 h post drug administration. Testing was carried out by a separate observer who was blinded to treatment conditions. Mechanical allodynia was assessed with von Frey filaments (North Coast Medical, Morgan Hill, Calif.), using the “up-down” method. Each hind paw was stimulated 5 times per filament (0.16-6.0 g), starting with the 0.6 g filament and increasing weight. Paw clutching or lifting, in response to three or more stimulations, was coded as a positive response. Once a positive response was detected, sequentially lighter-weight filaments were used to assess paw withdrawal threshold. Approximately 30 min after completing the von Frey test, cold allodynia was tested by propelling 10 μL of acetone (Fisher Bioscience) via air burst, from a 200 μL pipette (Rainin Instruments, Oakland, Calif.) onto the plantar surface of each hind paw. Total time lifting or clutching each paw was recorded, with a maximum time of 20 s.
Data Analyses: Behavioral data were analyzed using a two-way mixed factorial analysis of variance (ANOVA) for each paw, with drug treatment as the between subjects measure, and time as the within subjects measure. Follow-up comparisons were made using the Bonferroni test. All animals were included in the analyses. Differences between groups were considered statistically significant at p<0.05.

[5] = system: catalepsy, hypothermia, hypomotility (THC-like effects); experiment: Cannabimimetic side effects after oral administration; type: in vivo; details: oral administration 50 mg/kg
[6] = 50 mg/kg p.o., time course up to 9 h
[7] = Table 6, 30 mg/kg i.p., 1 h, single mouse
[8] = Table 7, i.p. (30 mg/kg), 3 mice per group
[9] = Table 7, oral (50 mg/kg), 3 mice per group

## O=C(c1ncc(-c2ccccn2)o1)C1CCc2cc(Oc3ccccc3)ccc2C1 (centres unmarked) [Compound 12, (6-Phenoxy-1,2,3,4-tetrahydronaphthalen-2-yl)(5-(pyridin-2-yl)oxazol-2-yl)methanone]
[1]
  mode of inhibition (Lineweaver-Burk analysis): reversible, competitive inhibitor; also recorded: competitive, reversible inhibition
[1]; Ki, rFAAH, Table 5, active (S)-enantiomers
  Ki: 4.4 nM
[2]; Table 5, active (S)-enantiomers
  Ki: 5.8 nM
[2]; hFAAH vs rFAAH, active (S)-enantiomers
  reduction in activity against the human enzyme versus rat FAAH: no significant distinction
[3]; [6]
  duration of elevation of brain N-acylethanolamines (AEA, PEA, OEA): maintained over the 9 h time course
  time of peak brain levels of anandamide: 1.5 to 3 h
[3]; [7]
  Brain 2-AG: 13 pmol/g
  Brain AA: 170 pmol/g
  Brain AEA: 42 pmol/g
  Brain PEA: 785 pmol/g
  Liver 2-AG: 0.25 pmol/g
  Liver AEA: 12 pmol/g
  Liver PEA: 472 pmol/g
[3]; [8]
  Brain 2-AG: 7.0 pmol/g
  Brain AEA: 28.6 pmol/g
  Brain PEA: 599 pmol/g
[3]; [9]
  Brain 2-AG: 11.5 pmol/g
  Brain AEA: 43.2 pmol/g
  Brain PEA: 772 pmol/g
[3]; p.o. 10, 25 and 50 mg/kg, 1 h
  increases in brain levels of N-palmitoyl ethanolamine and N-oleoyl ethanolamine: 5.5-7.8 fold
[3]; p.o. 25-50 mg/kg, 1 h
  increase in brain levels of anandamide: 12-13 fold
[4]
  duration of effect on cold allodynia: > 9 h
  duration of effect on mechanical allodynia: > 6 h
  mechanical or cold allodynia in control (contralateral) paws: no effect
[4]; FIG. 9 legend
  duration of attenuation of neuropathic pain: up to 9 hours
[5]
  cannabimimetic side effects: did not produce catalepsy, hypothermia, or hypomotility
